Experimental data published in PMC10301922, “Anti-Oxidant, Anti-Mutagenic Activity and Safety Evaluation of Antrocin” (Toxics, 2023).
Values after ≈ are worked out from the molar mass of the structure shown. “Also recorded” adds a separate entry of the source. Read-outs that look alike come from different tables or passages of the source.

Legend:
Sprague Dawley rats [1] = assay: 28-day oral toxicity test: clinical signs, mortality, overall result
[2] = Solubility in 95% ethanol; format: physicochemical; conditions: organic solvent or mixture
Method: Optical pure antrocin, with a purity > 95%, was provided by Professor Zhen Yang at the School of Chemical Biology and Biotechnology, Peking University. […] A 50 mg/mL ethanol solution of antrocin was prepared as a stock solution, and was diluted before testing. All of the samples were stored at 4 °C.

[3] = tested on: lung cancer tumor xenografts; set-up: method as in PMID 23880305; conditions: 5 mg/kg/day intraperitoneal; cited from earlier work
[4] = tested on: five different strains of Salmonella typhimurium; assay: Bacterial toxicity test prior to the Ames test; conditions: all tester strains
Sprague Dawley rats [5] = assay: 28-day oral toxicity test: hematology
[6] = tested on: Salmonella typhimurium TA98
[7] = tested on: Salmonella typhimurium TA100
[8] = female rats, 7.5 mg/kg oral 28 d
[9] = female rats, 37.5 mg/kg oral 28 d
[10] = male rats, 37.5 mg/kg oral 28 d
[11] = TA98, with S9, mutagen 2-AA 25 μg/plate, antrocin 0.025 mg/plate
[12] = TA98, with S9, mutagen 2-AA 25 μg/plate, antrocin 0.05 mg/plate
[13] = TA98, with S9, mutagen 2-AA 25 μg/plate, antrocin […]
[14] = TA98, without S9, mutagen 4-NQO 2.5 μg/plate, antrocin 0.025 mg/plate
[15] = TA98, without S9, mutagen 4-NQO 2.5 μg/plate, antrocin 0.05 mg/plate
[16] = TA98, without S9, mutagen 4-NQO 2.5 μg/plate, antrocin […]

Q: Which results are given for `C=C1CC[C@H]2C(C)(C)CCC[C@@]23C(=O)OC[C@@H]13` [Antrocin, (-)-Antrocin]?
A: toxic effects according to hematology, serum chemistry, urine analysis, histopathological examinations (Sprague Dawley rats [1]; 7.5 or 37.5 mg/kg oral 28 d): did not produce any toxic effects; highest dosage with no adverse effect (Sprague Dawley rats [1]; 28-day oral toxicity test in rats): 37.5 mg/kg/day; solubility [2]: ~133 mg/mL (≈ 568 mM); growth of lung cancer tumor xenografts [3]: significantly suppressed the growth; maximum non-toxic concentration [4]: 0.05 mg/plate; BASO (Sprague Dawley rats [5]; [8]): 0.0 ± 0.1%; EOSIN (Sprague Dawley rats [5]; [8]): 2.1 ± 1.7%; HCT (Sprague Dawley rats [5]; [8]): 45.0 ± 3.7%; HGB (Sprague Dawley rats [5]; [8]): 14.7 ± 1.2 g/dL; LYMPH (Sprague Dawley rats [5]; [8]): 86.1 ± 5.4%; MCH (Sprague Dawley rats [5]; [8]): 19.5 ± 0.8 pg; MCHC (Sprague Dawley rats [5]; [8]): 32.7 ± 0.3 g/dL; MCV (Sprague Dawley rats [5]; [8]): 59.7 ± 1.7 fL; MONO (Sprague Dawley rats [5]; [8]): 2.3 ± 1.1%; NEUT (Sprague Dawley rats [5]; [8]): 9.6 ± 3.3%; PLT (Sprague Dawley rats [5]; [8]): 606.0 ± 430.1 * 10^3/µL; RBC (Sprague Dawley rats [5]; [8]): 7.5 ± 0.6 10^6/µL; WBC (Sprague Dawley rats [5]; [8]): 8.7 ± 3.4 10^3/µL; BASO (Sprague Dawley rats [5]; [9]): 0.2 ± 0.2%; EOSIN (Sprague Dawley rats [5]; [9]): 1.2 ± 0.3%; HCT (Sprague Dawley rats [5]; [9]): 48.4 ± 2.0%; HGB (Sprague Dawley rats [5]; [9]): 15.8 ± 0.5 g/dL; LYMPH (Sprague Dawley rats [5]; [9]): 84.5 ± 4.1%; MCH (Sprague Dawley rats [5]; [9]): 19.8 ± 0.5 pg; MCHC (Sprague Dawley rats [5]; [9]): 32.7 ± 0.4 g/dL; MCV (Sprague Dawley rats [5]; [9]): 60.6 ± 1.0 fL; MONO (Sprague Dawley rats [5]; [9]): 3.2 ± 2.0%; NEUT (Sprague Dawley rats [5]; [9]): 10.9 ± 3.4%; PLT (Sprague Dawley rats [5]; [9]): 1065.6 ± 199.8 10^3/µL; RBC (Sprague Dawley rats [5]; [9]): 8.0 ± 0.4 10^6/µL; WBC (Sprague Dawley rats [5]; [9]): 7.8 ± 4.5 10^3/µL; BASO (Sprague Dawley rats [5]; male rats, 7.5 mg/kg oral 28 d): 0.0 ± 0.1%; EOSIN (Sprague Dawley rats [5]; male rats, 7.5 mg/kg oral 28 d): 1.2 ± 0.3%; HCT (Sprague Dawley rats [5]; male rats, 7.5 mg/kg oral 28 d): 45.8 ± 1.2%; HGB (Sprague Dawley rats [5]; male rats, 7.5 mg/kg oral 28 d): 15.1 ± 0.4 g/dL; LYMPH (Sprague Dawley rats [5]; male rats, 7.5 mg/kg oral 28 d): 77.2 ± 1.7 %; MCH (Sprague Dawley rats [5]; male rats, 7.5 mg/kg oral 28 d): 19.7 ± 0.5 pg; MCHC (Sprague Dawley rats [5]; male rats, 7.5 mg/kg oral 28 d): 32.9 ± 0.3 g/dL; MCV (Sprague Dawley rats [5]; male rats, 7.5 mg/kg oral 28 d): 59.8 ± 1.5 fL; MONO (Sprague Dawley rats [5]; male rats, 7.5 mg/kg oral 28 d): 2.7 ± 2.4%; NEUT (Sprague Dawley rats [5]; male rats, 7.5 mg/kg oral 28 d): 18.9 ± 3.1%; PLT (Sprague Dawley rats [5]; male rats, 7.5 mg/kg oral 28 d): 1235.2 ± 20.9 * 10^3/µL; RBC (Sprague Dawley rats [5]; male rats, 7.5 mg/kg oral 28 d): 7.7 ± 0.1 10^6/µL; WBC (Sprague Dawley rats [5]; male rats, 7.5 mg/kg oral 28 d): 5.3 ± 2.0 10^3/µL; BASO (Sprague Dawley rats [5]; [10]): 0.1 ± 0.1%; EOSIN (Sprague Dawley rats [5]; [10]): 0.6 ± 0.4%; HCT (Sprague Dawley rats [5]; [10]): 48.3 ± 3.2%; HGB (Sprague Dawley rats [5]; [10]): 15.7 ± 0.9 g/dL; LYMPH (Sprague Dawley rats [5]; [10]): 83.9 ± 3.9 %; MCH (Sprague Dawley rats [5]; [10]): 19.4 ± 0.6 pg; MCHC (Sprague Dawley rats [5]; [10]): 32.4 ± 0.6 g/dL; MCV (Sprague Dawley rats [5]; [10]): 59.8 ± 1.3 fL; MONO (Sprague Dawley rats [5]; [10]): 1.8 ± 1.1%; NEUT (Sprague Dawley rats [5]; [10]): 13.6 ± 3.7 %; PLT (Sprague Dawley rats [5]; [10]): 1372.2 ± 161.8 * 10^3/µL; RBC (Sprague Dawley rats [5]; [10]): 8.1 ± 0.6 10^6/µL; WBC (Sprague Dawley rats [5]; [10]): 6.4 ± 1.1 10^3/µL; Inhibition (%) of mutagenicity [6, 11]: 18.17%; Number of Revertant [6, 11]: 4959.0 ± 739.1 Colony/Plate; Inhibition (%) of mutagenicity [6, 12]: 33.67%; Number of Revertant [6, 12]: 4024.0 ± 251.1 Colony/Plate; Inhibition (%) of mutagenicity [6, 13]: 6.21%; Number of Revertant [6, 13]: 5680.3 ± 640.7 Colony/Plate; antimutagenic agent strength ([6]; TA98, without S9, against direct mutagen 4-NQO): strong anti-mutagenic agent; also recorded: very strong anti-mutagenic effect; Inhibition (%) of mutagenicity [6, 14]: 51.03%; Number of Revertant [6, 14]: 67.7 ± 2.5 Colony/Plate; Inhibition (%) of mutagenicity [6, 15]: 98.62%; Number of Revertant [6, 15]: 21.7 ± 1.5 Colony/Plate; Inhibition (%) of mutagenicity [6, 16]: 35.17%; Number of Revertant [6, 16]: 83.0 ± 3.6 Colony/Plate; Number of Revertant ([7]; TA100, with S9, 0.003125 mg/plate): 194.3 ± 5.4 Colony/Plate; Number of Revertant ([7]; TA100, with S9, 0.00625 mg/plate): 185.0 ± 6.5 Colony/Plate; Number of Revertant ([7]; TA100, with S9, 0.025 mg/plate): 197.0 ± 8.8 Colony/Plate; Number of Revertant ([7]; TA100, with S9, 0.05 mg/plate): 195.3 ± 2.9 Colony/Plate; Number of Revertant ([7]; TA100, without S9, 0.003125 mg/plate): 170.7 ± 1.2 Colony/Plate; Number of Revertant ([7]; TA100, without S9, 0.00625 mg/plate): 169.3 ± 8.2 Colony/Plate; Number of Revertant ([7]; TA100, without S9, 0.025 mg/plate): 181.7 ± 5.7 Colony/Plate; Number of Revertant ([7]; TA100, without S9, 0.05 mg/plate): 166.7 ± 4.5 Colony/Plate; bacterial mutagenicity ([7]; preliminary tests, TA100, 100 μg/plate): no bacterial mutagenicity
